Legend:
Experiment in all cases: combination Emax (second highest fraction inhibited in the dose matrix, 72 h); higher = more inhibition; extreme values may be limits of the assay
[1] = system: P30-OHK (B-Lymphoblastic Leukemia)
Outline: (§1)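 Cell lines grown in DMEM/F12 or RPMI with 10% FBS were plated in 1536-well plates and held 24 hours at 37°C, 5% CO2 before 72 hours of exposure to two-drug dose matrices, with DMSO typically at 0.2%. CellTiter-Glo 2.0 luminescence gave viability, which was converted to inhibition. Vehicle wells were set to 0 and blank wells to 1. Combination Emax is the second-highest inhibition in the matrix, and Bliss excess is the observed combination effect minus the expected EA + EB − EA·EB, where EA and EB are the single-agent effects.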

NCI-H226 (Mesothelioma) = system: NCI-H226 (Mesothelioma)
Outline: as §1

[2] = system: COR-L88 (Small Cell Lung Carcinoma)
Outline: as §1

[3] = system: P32-ISH (Burkitt's Lymphoma)
Outline: as §1

ES6 (Ewing's Sarcoma) = system: ES6 (Ewing's Sarcoma)
Outline: as §1

[4] = system: NCI-H1876 (Small Cell Lung Carcinoma)
Outline: as §1

[5] = system: SNU-407 (Colorectal Carcinoma)
Outline: as §1

[6] = system: NCI-H1963 (Small Cell Lung Carcinoma)
Outline: as §1

[7] = system: SNU-C2B (Colorectal Carcinoma)
Outline: as §1

[8] = system: MDA-MB-415 (Breast Carcinoma)
Outline: as §1

[9] = system: NMC-G1 (Low Grade Glioma)
Outline: as §1

[10] = system: PA-TU-8988T (Pancreatic Carcinoma)
Outline: as §1

[11] = system: MOLT-13 (T-Lymphoblastic Leukemia)
Outline: as §1

[12] = system: DBTRG-05MG (Glioblastoma)
Outline: as §1

[13] = system: OAW-28 (Ovarian Carcinoma)
Outline: as §1

[14] = system: SUP-M2 (T-Cell Non-Hodgkin's Lymphoma)
Outline: as §1

[15] = system: CPC-N (Small Cell Lung Carcinoma)
Outline: as §1

UACC-257 (Melanoma) = system: UACC-257 (Melanoma)
Outline: as §1

[16] = system: CL-11 (Colorectal Carcinoma)
Outline: as §1

[17] = system: SAT (Head and Neck Carcinoma)
Outline: as §1

Row | SMILES | combination Emax [1] | combination Emax (NCI-H226 (Mesothelioma)) | combination Emax [2] | combination Emax [3] | combination Emax (ES6 (Ewing's Sarcoma)) | combination Emax [4] | combination Emax [5] | combination Emax [6] | combination Emax [7] | combination Emax [8] | combination Emax [9] | combination Emax [10] | combination Emax [11] | combination Emax [12] | combination Emax [13] | combination Emax [14] | combination Emax [15] | combination Emax (UACC-257 (Melanoma)) | combination Emax [16] | combination Emax [17]
1 | COc1cccc(OCCCN)c1-c1cc(Nc2cnc(C#N)cn2)n[nH]1 [Prexasertib] + CCc1c2c(nc3ccc(O)cc13)-c1cc3c(c(=O)n1C2)COC(=O)[C@]3(O)CC [SN-38] (first compound max 1 µM, 7x7, partner max 0.3 µM) | 0.995 | 0.4 | 0.866 | 1 | 0.837 | 1 | 0.639 | 1 | 0.658 | 0.538 | 0.315 | 0.921 | 1 | 0.624 | 1 | 1 | 1 | 0.295 | 0.849 | 0.618
2 | COc1cccc(OCCCN)c1-c1cc(Nc2cnc(C#N)cn2)n[nH]1 [Prexasertib] + CN(C)CCCOc1ccc(-c2ccc3ncc4c(c3c2)n(C2CCOCC2)c(=O)n4C)cn1 [AZD0156] (first compound max 1 µM, 7x7, partner max 1 µM) | 0.987 | 0.179 | 0.843 | 1 | 0.573 | 0.968 | 0.653 | 0.975 | 0.622 | 0.321 | 0.362 | 0.38 | 1 | 0.409 | 0.563 | 1 | 1 | 0.364 | 0.734 | 0.579
3 | COc1cccc(OCCCN)c1-c1cc(Nc2cnc(C#N)cn2)n[nH]1 [Prexasertib] + C[C@@H]1COCCN1C2=NC(=NC(=C2)C3(CC3)[S@](=N)(=O)C)C4=C5C=CNC5=NC=C4 [AZD6738] (first compound max 1 µM, 7x7, partner max 10 µM) | 0.981 | 0.176 | 0.833 | 1 | 0.61 | 0.981 | 0.757 | 0.952 | 0.649 | 0.45 | 0.314 | 0.46 | 1 | 0.281 | 0.546 | 1 | 1 | 0.33 | 0.764 | 0.552
4 | COc1cccc(OCCCN)c1-c1cc(Nc2cnc(C#N)cn2)n[nH]1 [Prexasertib] + Cc1cc2ncnn2cc1Nc1ncc2c(n1)n(C1CCOCC1)c(=O)n2C [AZD7648] (first compound max 1 µM, 7x7, partner max 10 µM) | 0.984 | 0.209 | 0.823 | 1 | 0.625 | 0.988 | 0.597 | 0.975 | 0.706 | 0.413 | 0.327 | 0.532 | 1 | 0.315 | 0.462 | 1 | 1 | 0.321 | 0.788 | 0.573
5 | COc1cccc(OCCCN)c1-c1cc(Nc2cnc(C#N)cn2)n[nH]1 [Prexasertib] + O=C(c1cc(Cc2n[nH]c(=O)c3ccccc23)ccc1F)N1CCN(C(=O)C2CC2)CC1 [Olaparib] (first compound max 1 µM, 7x7, partner max 10 µM) | 0.991 | 0.275 | 0.609 | 1 | 0.58 | 0.981 | 0.583 | 0.908 | 0.66 | 0.397 | 0.371 | 0.288 | 1 | 0.326 | 0.48 | 1 | 0.984 | 0.312 | 0.77 | 0.595
6 | COc1cc2c(cc1OCCCCCOc1cc3c(cc1OC)C(=O)N1C=C(C)C[C@H]1C=N3)N=C[C@@H]1CC(C)=CN1C2=O [SG3199] + O=C(c1cc(Cc2n[nH]c(=O)c3ccccc23)ccc1F)N1CCN(C(=O)C2CC2)CC1 [Olaparib] (first compound max 0.001 µM, 7x7, partner max 10 µM) | 0.31 | 0.0668 | 0.237 | 0.247 | 0.144 | 0.7 | 0.182 | 0.293 | 0.249 | 0.0958 | 0.183 | 0.206 | 0.226 | 0.114 | 0.245 | 0.839 | 0.243 | 0.0273 | 0.111 | 0.17
7 | CCc1c2c(nc3ccc(O)cc13)-c1cc3c(c(=O)n1C2)COC(=O)[C@]3(O)CC [SN-38] + CN(C)CCCOc1ccc(-c2ccc3ncc4c(c3c2)n(C2CCOCC2)c(=O)n4C)cn1 [AZD0156] (first compound max 0.3 µM, 7x7, partner max 1 µM) | 0.973 | 0.337 | 0.472 | 1 | 0.603 | 1 | 0.416 | 0.822 | 0.397 | 0.294 | 0.24 | 0.704 | 1 | 0.412 | 0.791 | 1 | 0.549 | 0.281 | 0.764 | 0.344
8 | CC(=O)Nc1cccc(-n2c(=O)n(C3CC3)c(=O)c3c(Nc4ccc(I)cc4F)n(C)c(=O)c(C)c32)c1 [Trametinib] + Cc1nc(-c2cn3c(n2)-c2ccc(-c4cnn(C(C)(C)C(N)=O)c4)cc2OCC3)n(C(C)C)n1 [Taselisib] (first compound max 1 µM, 7x7, partner max 10 µM) | 0.49 | 0.327 | 0.154 | 0.508 | 0.607 | 0.796 | 0.905 | 0.435 | 0.676 | 0.848 | 0.488 | 0.762 | 0.698 | 0.69 | 0.589 | 0.534 | 0.362 | 0.806 | 0.989 | 0.941
9 | CC1(C)CCC(CN2CCN(c3ccc(C(=O)NS(=O)(=O)c4ccc(NCC5CCOCC5)c([N+](=O)[O-])c4)c(Oc4cnc5[nH]ccc5c4)c3)CC2)=C(c2ccc(Cl)cc2)C1 [Venetoclax] + C1CN(CCC1(C(=O)N[C@@H](CCO)C2=CC=C(C=C2)Cl)N)C3=NC=NC4=C3C=CN4 [Capivasertib] (first compound max 1 µM, 7x7, partner max 3 µM) | 0.678 | 0.241 | 0.557 | 0.306 | 0.47 | 0.259 | 0.388 | 0.775 | 0.25 | 0.663 | 0.111 | 0.219 | 0.566 | 0.209 | 0.134 | 0.248 | 0.84 | 0.123 | 0.162 | 0.377
10 | CC1(C)CCC(CN2CCN(c3ccc(C(=O)NS(=O)(=O)c4ccc(NCC5CCOCC5)c([N+](=O)[O-])c4)c(Oc4cnc5[nH]ccc5c4)c3)CC2)=C(c2ccc(Cl)cc2)C1 [Venetoclax] + C=CCn1c(=O)c2cnc(Nc3ccc(N4CCN(C)CC4)cc3)nc2n1-c1cccc(C(C)(C)O)n1 [AZD1775] (first compound max 1 µM, partner max 1 µM) | 0.992 | 0.268 | 0.939 | 1 | 0.513 | 0.994 | 0.558 | 0.973 | 0.609 | 0.206 | 0.394 | 0.728 | 1 | 0.241 | 0.233 | 0.981 | 0.964 | 0.185 | 0.502 | 0.545
11 | CC1(C)CCC(CN2CCN(c3ccc(C(=O)NS(=O)(=O)c4ccc(NCC5CCOCC5)c([N+](=O)[O-])c4)c(Oc4cnc5[nH]ccc5c4)c3)CC2)=C(c2ccc(Cl)cc2)C1 [Venetoclax] + CCN(CCO)CCCOc1ccc2c(Nc3cc(CC(=O)Nc4cccc(F)c4)[nH]n3)ncnc2c1 [AZD2811] (first compound max 1 µM, 7x7, partner max 1 µM) | 1 | 0.158 | 0.667 | 0.912 | 0.32 | 0.742 | 0.485 | 0.893 | 0.185 | 0.231 | 0.229 | 0.0634 | 1 | 0.228 | 0.314 | 0.898 | 0.942 | 0.226 | 0.267 | 0.187
12 | CC1(C)CCC(CN2CCN(c3ccc(C(=O)NS(=O)(=O)c4ccc(NCC5CCOCC5)c([N+](=O)[O-])c4)c(Oc4cnc5[nH]ccc5c4)c3)CC2)=C(c2ccc(Cl)cc2)C1 [Venetoclax] + CN(C)CCCOc1ccc(-c2ccc3ncc4c(c3c2)n(C2CCOCC2)c(=O)n4C)cn1 [AZD0156] (first compound max 1 µM, 7x7, partner max 1 µM) | 0.458 | 0.212 | 0.525 | 0.0131 | 0.349 | 0.282 | 0.234 | 0.565 | 0.156 | 0.262 | 0.192 | 0.179 | 0.718 | 0.174 | 0.116 | 0.264 | 0.78 | 0.177 | 0.11 | 0.204

Source: the supplement of paper PMC11061612
